According to PMC7291858, “An Enhanced Variant Designed From DLP4 Cationic Peptide Against Staphylococcus aureus CVCC 546” (Frontiers in Microbiology, 2020):
Peptide text beside a SMILES is read from it.

Experiments:
[1] = tested on: S. aureus ATCC 43300; type: cell-based, Staphylococcus aureus; conditions: microtiter, serial 2-fold dilutions, 37°C, 16∼20 h, triplicate; – = no activity
Description: (§1) The minimal inhibitory concentration (MIC) was evaluated by a microtiter plate assay ([Wiegand et al., 2008]). Serial 2-fold dilutions of test peptides were placed into a 96-well plate containing identical bacterial inoculum and incubated at 37°C for 16∼20 h. Vancomycin was used as antibiotic control. The MIC value was defined as the lowest peptide concentration where no visible growth occurred. All tests were made in triplicate.

[2] = tested on: Staphylococcus aureus CVCC 546; test: microbe, parasite or virus in culture; type: cell-based; conditions: Table 1; – = no activity
Description: as §1

Compound	A1 (MIC against S. aureus ATCC 43300) [1] [µg/mL]	MIC [2]
CC[C@H](C)[C@@H]1NC(=O)[C@@H]2CSSC[C@@H](C(=O)N[C@@H](CCCNC(=N)N)C(=O)N[C@@H](CCCCN)C(=O)O)NC(=O)[C@H](CC(N)=O)NC(=O)[C@@H]3CSSC[C@H](NC(=O)[C@H](C)NC(=O)[C@H](C)NC(=O)[C@H](Cc4c[nH]cn4)NC(=O)CNC(=O)[C@H](C(C)C)NC(=O)CNC(=O)[C@H](Cc4ccccc4)NC(=O)[C@@H]4CCCN4C(=O)[C@H](CO)NC(=O)[C@H](CC(C)C)NC(=O)[C@H](CC(C)C)NC(=O)[C@H](CC(=O)O)NC(=O)[C@@H](NC(=O)[C@@H](NC(=O)[C@H](C)N)[C@@H](C)O)CSSC[C@H](NC(=O)[C@H](Cc4c[nH]c5ccccc45)NC(=O)CNC(=O)CNC(=O)[C@H](CCCNC(=N)N)NC(=O)[C@H](CCCCN)NC(=O)CNC(=O)[C@H](CCCNC(=N)N)NC(=O)[C@H](C)NC1=O)C(=O)N[C@@H](CC(=O)O)C(=O)NCC(=O)N[C@@H](CCCNC(=N)N)C(=O)N[C@@H](C)C(=O)N[C@@H](C(C)C)C(=O)N3)C(=O)N[C@@H](C)C(=O)N[C@@H](C)C(=O)N[C@@H](Cc1c[nH]cn1)C(=O)N2 [ID16] (HELM PEPTIDE1{A.T.C.D.L.L.S.P.F.G.V.G.H.A.A.C.A.A.H.C.I.A.R.G.K.R.G.G.W.C.D.G.R.A.V.C.N.C.R.K}$PEPTIDE1,PEPTIDE1,3:R3-30:R3|PEPTIDE1,PEPTIDE1,16:R3-36:R3|PEPTIDE1,PEPTIDE1,20:R3-38:R3$$$V2.0; N-terminus and C-terminus assumed; bridges inferred)	8	16
CC[C@H](C)[C@@H]1NC(=O)[C@H](C)NC(=O)[C@H](CCCNC(=N)N)NC(=O)[C@H](CCCCN)NC(=O)[C@H](CC(=O)O)NC(=O)[C@@H]2CSSC[C@H](NC(=O)[C@@H](NC(=O)[C@H](C)N)[C@@H](C)O)C(=O)N[C@@H](CC(=O)O)C(=O)N[C@@H](CC(C)C)C(=O)N[C@@H](CC(C)C)C(=O)N[C@@H](CO)C(=O)N3CCC[C@H]3C(=O)N[C@@H](Cc3ccccc3)C(=O)N[C@@H](CCCCN)C(=O)N[C@@H](C(C)C)C(=O)NCC(=O)N[C@@H](Cc3c[nH]cn3)C(=O)N[C@@H](C)C(=O)N[C@@H](C)C(=O)N[C@H]3CSSC[C@H](NC1=O)C(=O)N[C@@H](CC(N)=O)C(=O)N[C@H](C(=O)N[C@@H](CCCNC(=N)N)C(=O)N[C@@H](CCCCN)C(=O)O)CSSC[C@H](NC(=O)[C@H](Cc1c[nH]cn1)NC(=O)[C@H](C)NC(=O)[C@H](C)NC3=O)C(=O)N[C@@H]([C@@H](C)CC)C(=O)N[C@@H](C)C(=O)N[C@@H](CCCNC(=N)N)C(=O)NCC(=O)N[C@@H](CCCCN)C(=O)N[C@@H](CCCNC(=N)N)C(=O)NCC(=O)NCC(=O)N[C@@H](Cc1c[nH]c3ccccc13)C(=O)N2 [ID30] (HELM PEPTIDE1{A.T.C.D.L.L.S.P.F.K.V.G.H.A.A.C.A.A.H.C.I.A.R.G.K.R.G.G.W.C.D.K.R.A.I.C.N.C.R.K}$PEPTIDE1,PEPTIDE1,3:R3-30:R3|PEPTIDE1,PEPTIDE1,16:R3-36:R3|PEPTIDE1,PEPTIDE1,20:R3-38:R3$$$V2.0; N-terminus and C-terminus assumed; bridges inferred)	16	32
CC[C@H](C)[C@@H]1NC(=O)[C@@H]2CSSC[C@@H](C(=O)N[C@@H](CCCNC(=N)N)C(=O)N[C@@H](CCCCN)C(=O)O)NC(=O)[C@H](CC(N)=O)NC(=O)[C@@H]3CSSC[C@H](NC(=O)[C@H](C)NC(=O)[C@H](C)NC(=O)[C@H](Cc4c[nH]cn4)NC(=O)CNC(=O)[C@H](C(C)C)NC(=O)[C@H](CCCCN)NC(=O)[C@H](Cc4ccccc4)NC(=O)[C@@H]4CCCN4C(=O)[C@H](CO)NC(=O)[C@H](CC(C)C)NC(=O)[C@H](CC(C)C)NC(=O)[C@H](CC(=O)O)NC(=O)[C@@H](NC(=O)[C@@H](NC(=O)[C@H](C)N)[C@@H](C)O)CSSC[C@H](NC(=O)[C@H](Cc4c[nH]c5ccccc45)NC(=O)CNC(=O)CNC(=O)[C@H](CCCNC(=N)N)NC(=O)[C@H](CCCCN)NC(=O)CNC(=O)[C@H](CCCNC(=N)N)NC(=O)[C@H](C)NC1=O)C(=O)N[C@@H](CC(=O)O)C(=O)N[C@@H](CCCCN)C(=O)N[C@@H](CCCNC(=N)N)C(=O)N[C@@H](C)C(=O)N[C@@H](C(C)C)C(=O)N3)C(=O)N[C@@H](C)C(=O)N[C@@H](CC(C)C)C(=O)N[C@@H](Cc1c[nH]cn1)C(=O)N2 [ID27] (HELM PEPTIDE1{A.T.C.D.L.L.S.P.F.K.V.G.H.A.A.C.A.L.H.C.I.A.R.G.K.R.G.G.W.C.D.K.R.A.V.C.N.C.R.K}$PEPTIDE1,PEPTIDE1,3:R3-30:R3|PEPTIDE1,PEPTIDE1,16:R3-36:R3|PEPTIDE1,PEPTIDE1,20:R3-38:R3$$$V2.0; N-terminus and C-terminus assumed; bridges inferred)	8	8
CC[C@H](C)[C@@H]1NC(=O)[C@@H]2CSSC[C@@H](C(=O)N[C@@H](CCCNC(=N)N)C(=O)N[C@@H](CC(N)=O)C(=O)O)NC(=O)[C@H](CC(N)=O)NC(=O)[C@@H]3CSSC[C@H](NC(=O)[C@H](C)NC(=O)[C@H](C)NC(=O)[C@H](Cc4c[nH]cn4)NC(=O)CNC(=O)[C@H](C(C)C)NC(=O)CNC(=O)[C@H](Cc4ccccc4)NC(=O)[C@@H]4CCCN4C(=O)[C@H](CO)NC(=O)[C@H](CC(C)C)NC(=O)[C@H](CC(C)C)NC(=O)[C@H](CC(=O)O)NC(=O)[C@@H](NC(=O)[C@@H](NC(=O)[C@H](C)N)[C@@H](C)O)CSSC[C@H](NC(=O)[C@H](Cc4c[nH]c5ccccc45)NC(=O)CNC(=O)CNC(=O)[C@H](CCCNC(=N)N)NC(=O)[C@H](CCCCN)NC(=O)CNC(=O)[C@H](CCCNC(=N)N)NC(=O)[C@H](C)NC1=O)C(=O)N[C@@H](CC(=O)O)C(=O)N[C@@H](CCCCN)C(=O)N[C@@H](CCCNC(=N)N)C(=O)N[C@@H](C)C(=O)N[C@@H](C(C)C)C(=O)N3)C(=O)N[C@@H](C)C(=O)N[C@@H](C)C(=O)N[C@@H](Cc1c[nH]cn1)C(=O)N2 [ID17] (HELM PEPTIDE1{A.T.C.D.L.L.S.P.F.G.V.G.H.A.A.C.A.A.H.C.I.A.R.G.K.R.G.G.W.C.D.K.R.A.V.C.N.C.R.N}$PEPTIDE1,PEPTIDE1,3:R3-30:R3|PEPTIDE1,PEPTIDE1,16:R3-36:R3|PEPTIDE1,PEPTIDE1,20:R3-38:R3$$$V2.0; N-terminus and C-terminus assumed; bridges inferred)	16	64
CC[C@H](C)[C@@H]1NC(=O)[C@@H]2CSSC[C@@H](C(=O)N[C@@H](CCCNC(=N)N)C(=O)N[C@@H](CCCCN)C(=O)O)NC(=O)[C@H](CC(N)=O)NC(=O)[C@@H]3CSSC[C@H](NC(=O)[C@H](C)NC(=O)[C@H](C)NC(=O)[C@H](Cc4c[nH]cn4)NC(=O)CNC(=O)[C@H](C(C)C)NC(=O)[C@H](CCCCN)NC(=O)[C@H](Cc4ccccc4)NC(=O)[C@@H]4CCCN4C(=O)[C@H]([C@@H](C)O)NC(=O)[C@H](CC(C)C)NC(=O)[C@H](CC(C)C)NC(=O)[C@H](CC(=O)O)NC(=O)[C@@H](NC(=O)[C@@H](NC(=O)[C@H](C)N)[C@@H](C)O)CSSC[C@H](NC(=O)[C@H](Cc4c[nH]c5ccccc45)NC(=O)CNC(=O)CNC(=O)[C@H](CCCNC(=N)N)NC(=O)[C@H](CCCCN)NC(=O)CNC(=O)[C@H](CCCNC(=N)N)NC(=O)[C@H](C)NC1=O)C(=O)N[C@@H](CC(=O)O)C(=O)N[C@@H](CCCCN)C(=O)N[C@@H](CCCNC(=N)N)C(=O)N[C@@H](C)C(=O)N[C@@H](C(C)C)C(=O)N3)C(=O)N[C@@H](C)C(=O)N[C@@H](C)C(=O)N[C@@H](Cc1c[nH]cn1)C(=O)N2 [ID6] (HELM PEPTIDE1{A.T.C.D.L.L.T.P.F.K.V.G.H.A.A.C.A.A.H.C.I.A.R.G.K.R.G.G.W.C.D.K.R.A.V.C.N.C.R.K}$PEPTIDE1,PEPTIDE1,3:R3-30:R3|PEPTIDE1,PEPTIDE1,16:R3-36:R3|PEPTIDE1,PEPTIDE1,20:R3-38:R3$$$V2.0; N-terminus and C-terminus assumed; bridges inferred)	8	16
CC(C)C[C@@H]1NC(=O)[C@@H]2CSSC[C@@H](C(=O)N[C@@H](CCCNC(=N)N)C(=O)N[C@@H](CCCCN)C(=O)O)NC(=O)[C@H](CC(N)=O)NC(=O)[C@@H]3CSSC[C@H](NC(=O)[C@H](C)NC(=O)[C@H](C)NC(=O)[C@H](Cc4c[nH]cn4)NC(=O)CNC(=O)[C@H](C(C)C)NC(=O)[C@H](CCCCN)NC(=O)[C@H](Cc4ccccc4)NC(=O)[C@@H]4CCCN4C(=O)[C@H](CO)NC(=O)[C@H](CC(C)C)NC(=O)[C@H](CC(C)C)NC(=O)[C@H](CC(=O)O)NC(=O)[C@@H](NC(=O)[C@@H](NC(=O)[C@H](C)N)[C@@H](C)O)CSSC[C@H](NC(=O)[C@H](Cc4c[nH]c5ccccc45)NC(=O)CNC(=O)CNC(=O)[C@H](CCCNC(=N)N)NC(=O)[C@H](CCCCN)NC(=O)CNC(=O)[C@H](CCCNC(=N)N)NC(=O)[C@H](C)NC1=O)C(=O)N[C@@H](CC(=O)O)C(=O)N[C@@H](CCCCN)C(=O)N[C@@H](CCCNC(=N)N)C(=O)N[C@@H](C)C(=O)N[C@@H](C(C)C)C(=O)N3)C(=O)N[C@@H](C)C(=O)N[C@@H](C)C(=O)N[C@@H](Cc1c[nH]cn1)C(=O)N2 [ID29] (HELM PEPTIDE1{A.T.C.D.L.L.S.P.F.K.V.G.H.A.A.C.A.A.H.C.L.A.R.G.K.R.G.G.W.C.D.K.R.A.V.C.N.C.R.K}$PEPTIDE1,PEPTIDE1,3:R3-30:R3|PEPTIDE1,PEPTIDE1,16:R3-36:R3|PEPTIDE1,PEPTIDE1,20:R3-38:R3$$$V2.0; N-terminus and C-terminus assumed; bridges inferred)	64	128
